Results on 59 compounds are retold here after PubChem BioAssay AID977621 (Broad Institute, 2014).

Results filed as inconclusive are left out. Calls of active or inactive are those of the source.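 Rule for the calls: active = Wild-type ribosome reporter drop at least double the humanized mutant ribosome reporter drop, growth loss under a set limit; inconclusive = no clear call, values can overlap the other calls; inactive = the rest.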 A value given as a limit tells only on which side of the number the result lay.

This assay has as its system E. coli wild-type GFP strain growth, fluorescence, 24 h. In words: wild-type E. coli growth inhibition versus H69 humanized strain – H69 mutant RFP, wild-type GFP, cherry-pick, dose response (AID 977621).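 Note: wild-type GFP and H69 mutant RFP strains grown together 50/50 in each well.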
The mark [1] stands for this setting: E. coli mixed culture, 24 h, measured here: total growth OD600, test 2.

As usually defined, the AC50 is the midpoint of the concentration-response curve, whichever way the signal moves.

In the case of `Cc1cc(C(=O)NCCC2=CCCCC2)ccc1[N+](=O)[O-]`, the AC50 was > 100 µM (inactive).
Regarding `O=C(CSc1ccncc1)Nc1ccc2ccccc2c1`, the AC50 is > 100 µM (inactive). This compound yielded an AC50 under setting [1] of 30 µM.
`CS(=O)(=O)N(CC(=O)N1CCc2ccccc2C1)c1cccc(Br)c1` displayed an AC50 under setting [1] of more than 100 µM.
Still for that read-out and setting: as for `O=C1c2ccccc2NC(c2cccc(F)c2)N1Cc1ccco1` (stereo not given), the figure is 9.09 µM.
As for `O=C(NCc1nnnn1-c1ccc(Cl)cc1)c1ccc([N+](=O)[O-])o1`, the AC50 was > 100 µM (inactive).
In the case of `CCc1cc2cc(OC)ccc2nc1SCC(=O)Nc1cc(OC)c(OC)cc1C(=O)O`, the AC50 under setting [1] is more than 100 µM.
Regarding `O=C(COc1cc(F)ccc1[N+](=O)[O-])NCCCc1ccccc1`, under setting [1], the AC50 was more than 100 µM.
Under setting [1], `C[C@H](CO)N1C[C@H](C)[C@H](CN(C)C(=O)Nc2ccc3c(c2)OCO3)Oc2c(NC(=O)Nc3ccccc3)cccc2C1=O` yielded an AC50 of 48.4 µM.
As for `OC[C@H]1[C@H](c2ccc(-c3ccc(F)cc3)cc2)[C@@H]2CN(Cc3ccncc3)CCCCN12`, the AC50 is > 100 µM (inactive).
Same read-out and setting: with `c1ccc(CNc2ncnc3sccc23)cc1` the figure was > 100 µM (inactive).
Same read-out and setting: with `O=C(CN1CCC(n2nnc3cc(F)ccc32)CC1)N1CCc2ccccc2C1` the figure was > 100 µM (inactive); with `O=C(CN1C(=O)c2ccccc2C1=O)Nc1cccc(S(=O)(=O)Nc2ccccc2Cl)c1`, > 100 µM (inactive).
Turning to `O=C(CCC(=O)N1CCN(c2ccc(F)cc2)CC1)N1CCN(c2ccc(F)cc2)CC1`, the AC50 was > 100 µM (inactive). In addition, the AC50 under setting [1] is more than 100 µM.
Regarding `CCOCC(=O)Nc1c(C(=O)Nc2ccc3c(c2)OCCO3)oc2ccccc12`, the AC50 is > 100 µM (inactive).
The same measure, in the same setting: with `CCN(CC)CCN(C(=O)C1CCCCC1)c1nc2cc3c(cc2s1)OCO3` the figure was > 100 µM (inactive).
The compound `COc1cccc(OC)c1CNC(=O)CCSCc1ccccc1F` came in with an AC50 under setting [1] of more than 100 µM.
On to `Cc1cccc(CSCC(=O)N2CCN(S(=O)(=O)c3ccccc3C#N)CC2)c1`, for which the AC50 is > 100 µM (inactive).
Take `COc1cccc(-c2ccc(SCc3ccccn3)nn2)c1`: the AC50 is > 100 µM (inactive). The compound further showed an AC50 under setting [1] of 48.2 µM.
For `CCOC(=O)c1cnc2c(cnn2C)c1NCc1ccc(OC)cc1` the same measures were > 100 µM (inactive) and more than 100 µM.
With `CCN(c1ccccc1)S(=O)(=O)c1ccc(Cl)c(NC(=O)CSc2n[nH]c(N)n2)c1`, the AC50 is > 100 µM (inactive).
Take `Cc1ccc(NC(=O)c2ccc(Br)o2)cc1S(=O)(=O)N(C)C`: the AC50 is > 100 µM (inactive). Under setting [1], this compound had an AC50 of more than 100 µM.
For `O=C1c2ccccc2C(c2nnnn2Cc2ccccc2)N1CCc1ccc(O)cc1` (stereo not given), the AC50 is > 100 µM (inactive).
In the case of `O=C(CCNC(=O)c1ccco1)Nc1cccc(Br)c1`, under setting [1], the AC50 is more than 100 µM.
Take `COc1ccccc1-c1ccc(SCc2cccc(F)c2)nn1`: the AC50 was > 100 µM (inactive). This compound also had an AC50 under setting [1] of 20.3 µM.
For `CCCN(CC(=O)Nc1ccccc1C)C(=O)c1cccc(S(=O)(=O)N2CCc3ccccc3C2)c1` the same measures were > 100 µM (inactive) and 40.8 µM.
For `COc1ccc(CC(=O)Nc2nc(-c3cc(OC)ccc3OC)cs2)cc1` the same measures were > 100 µM (inactive) and 20.9 µM.
For `Cc1ccccc1OCc1nc2ccccc2n1C`, the AC50 was > 100 µM (inactive).
Consider `O=C(NCc1ccc2c(c1)OCO2)c1sccc1Br`, for which the AC50 is > 100 µM (inactive).
In turn, `COc1ccc(C(=O)NCCC2=CCCCC2)cc1[N+](=O)[O-]` returned an AC50 under setting [1] of more than 100 µM.
For the compound `S=c1[nH]nc(-c2ccc(Br)cc2)n1-c1ccc2c(c1)OCCO2`, the AC50 was > 100 µM (inactive).
Take `CSc1ccccc1OCc1cc(C(=O)N(C)Cc2nonc2C)no1`: the AC50 under setting [1] was more than 100 µM.
Turning to `COc1ccc(Cc2nnc(Nc3ccc(C)cc3)o2)cc1OC`, the AC50 was > 100 µM (inactive).
Turning to `COc1ccc([C@H]2C[C@H](O)C[C@@H](CCn3cc(-c4ccccc4)nn3)O2)cc1`, the AC50 was > 100 µM (inactive). For the same compound, the AC50 under setting [1] is more than 100 µM.
For `COc1cc(-c2cc3nc(NCCc4ccncc4)ccn3n2)cc(OC)c1OC`, the AC50 was > 100 µM (inactive).
As to `Cc1cc(C)c(OCCNC(=O)c2ccccc2Sc2ccccc2C#N)c(C)c1`, the AC50 was > 100 µM (inactive). The AC50 (E. coli mixed culture, 24 h, measured here: total growth OD600, test 1) was found to be 5.7 µM.
As to `NC(=O)c1ccsc1NC(=O)COC(=O)CSc1ccc(Cl)cc1`, the AC50 was > 100 µM (inactive). The compound also registered an AC50 under setting [1] of more than 100 µM.
With `CC(C)(C)c1ccc(CCC2OCC(CN3CCOCC3)O2)cc1` (stereo not given), the AC50 was > 100 µM (inactive).
Under setting [1], `CCOc1ccc2[nH]c3c(NCCN(C)C)ncnc3c2c1` came in with an AC50 of more than 100 µM.
In the case of `Cc1ccc(C2(c3noc(CN(C)Cc4cccnc4)n3)CCCC2)cc1`, the AC50 was > 100 µM (inactive).
Compound `CNC(=O)c1sc(-c2ccccn2)nc1C` showed an AC50 under setting [1] of more than 100 µM.
Take `CCN(CC)CCN(C(=O)c1ccc2c(c1)OCCO2)c1nc2cc(C)cc(C)c2s1`: the AC50 is > 100 µM (inactive).
For the compound `c1ccc(CN2CCN(C3CCCSc4ccccc43)CC2)cc1` (stereo not given), the AC50 is > 100 µM (inactive). The compound also yielded an AC50 under setting [1] of 49.8 µM.
Under setting [1], `CCOC(=O)c1cnc2c(c(C)nn2C)c1Oc1ccc(OC)cc1` came in with an AC50 of more than 100 µM.
`Cc1c(C(=O)NCCSCc2cccc(C(F)(F)F)c2)cnn1-c1ccc(F)cc1`: the AC50 was > 100 µM (inactive). The concentration at half-maximal activity (AC50) under setting [1] was determined as 17.4 µM.
With `COc1ccccc1NC(=O)CN1CCSc2ccccc21`, the AC50 was > 100 µM (inactive).
In the case of `CCc1ccc2nc(SCC(=O)Nc3ccccc3N3CCOCC3)c(C#N)cc2c1`, under setting [1], the AC50 was more than 100 µM.
For `N#CC1CN(Cc2ccccc2)CN(Cc2ccccc2)C1`, the AC50 was > 100 µM (inactive).
Still for that read-out and setting: with `O=C1C(c2ccccc2)c2ccccc2N1Cc1ccccc1` (stereo not given) the figure was > 100 µM (inactive).
Turning to `CCOc1ccc(NC(=O)CN(C)CC(=O)Nc2ccc(Br)cc2F)cc1OCC`, the AC50 is > 100 µM (inactive). Also, the AC50 under setting [1] is more than 100 µM.
On to `COc1cccc(NC2=Nc3cccc4cccc2c34)c1`, for which the AC50 under setting [1] is more than 100 µM.
On the same count and under the same terms, as for `CC1CCCN(c2ccc(C(=O)NCCc3ccccc3)cn2)C1` (stereo not given), the figure is more than 100 µM.
With `O=C(c1cccc(F)c1)N1CCN(c2ccc([N+](=O)[O-])c3cccnc23)CC1`, the AC50 was > 100 µM (inactive). This compound gave an AC50 under setting [1] of more than 100 µM.
Consider `COc1ccc(NC(=O)CCS(=O)(=O)c2ccccc2Cl)cc1S(=O)(=O)Nc1ccc(Cl)cc1`, for which, under setting [1], the AC50 is more than 100 µM.
Same read-out and setting: with `O=C(Nc1ccc(Cl)cn1)c1cc2c(s1)-c1ccccc1OC2` the figure was more than 100 µM; with `COC(=O)c1sc(-c2ccc(C(C)(C)C)cc2)cc1NC(=O)c1ccccc1C(=O)O`, more than 100 µM.
As to `CCOc1ccc2nc(NC(=O)CSc3nc(SC)ns3)sc2c1`, under setting [1], the AC50 is more than 100 µM.
As for `C[C@@H]1CCCCO[C@@H](CN(C)C(=O)c2ccccc2)[C@H](C)CN([C@@H](C)CO)C(=O)c2cc(NC(=O)c3ccccc3)ccc2O1`, the AC50 was > 100 µM (inactive).
Consider `O=C(CSc1ccc(-c2cccnc2)nn1)N1CCCc2ccccc21`, for which the AC50 is > 100 µM (inactive). Besides, under setting [1], the AC50 was more than 100 µM.
Compound `Cc1nc2ncnn2c(N2CCC(C(=O)NC3CCCC3)CC2)c1Cc1ccccc1` showed an AC50 under setting [1] of more than 100 µM.
